US7181884B2, “Materials and methods for controlling pests” (University of Florida Research Foundation, Inc., priority 2001, dated 2007)
Like-named read-outs stand apart in the source and are kept apart here.

What was measured:
CAATCH1 = CAATCH1 expressed in cell membranes; cited from earlier work
[1] = tested on: Manduca sexta neonate larvae; conditions: all test doses, sprayed excised eggplant leaves, water vehicle
Excerpt: (§1) Another study evaluated the Manduca larvae mortality on excised leaves of host plant (eggplant; Solanum melongena) that were sprayed with various concentrations of L-methionine dissolved in deionized water. Manduca sexta neonate larvae were initially reared on eggplants in Plexiglas cylinders. Larvae (total N=64/treatment) were exposed to eggplant leaves that were sprayed (then dried) with aqueous solutions of methionine.

[2] = tested on: eggplant; Solanum melongena; conditions: in vivo
Excerpt: as §1

[3] = tested on: Colorado potato beetle, Leptinotarsa decemlineata; conditions: field
Protocol: Eggplant (Solanum melongena) growing in an outside test field were treated with various concentrations of aqueous L-methionine solutions applied to the leaves, which were allowed to dry. Then larvae of Colorado potato beetle, Leptinotarsa decemlineata, were applied to the plants, and surviving larvae were counted daily.

[4] = tested on: eggplant (Solanum melongena); conditions: in vivo
Excerpt: Host eggplant (Solanum melongena) growing in fields were sprayed with deionized water containing varying concentrations of methionine, then dried.

Aedes aegypti larvae = tested on: Aedes aegypti larvae
Excerpt: Another experiment assessed the specificity of L-methionine compared to L-proline on Aedes aegypti survival. Mosquito larvae (third or fourth instar; N=240) were placed in water containing various concentrations of L-proline or L-methionine, and fed ad libitum with commercial dried fish food applied to the water.

[5] = tested on: Leptinotarsa decemlineata larvae; conditions: whole eggplants sprayed, water vehicle
Excerpt: Host growing whole eggplants in environmental growth chanmbers were sprayed with deionized water containing varying concentrations of methionine, then dried. Leptinotarsa decemlineata larvae (N=160 per group) were exposed to the leaves, and surviving larvae were counted daily.

Manduca sexta larvae [6] = conditions: 10% wt./wt. of dry diet components
Protocol: The effect of feeding L-methionine to Manduca sexta larvae as they progressed from the first through fifth instar stages was determined. Colonies of hornworms are commonly reared for research by well-accepted techniques that account for environmental conditions such as feed availability, daily photoperiod, temperature, etc. The caterpillars were obtained from Carolina Biological Supply Co. and were placed in a lighted 27° C. incubator and fed hydrated reconstituted Dry Tobacco Hornworm Medium Stock No. L-908D (Carolina Biological Supply Co., Burlington, N.C.) supplemented with or without (control) L-methionine supplementation.
The effect of feeding L-methionine to Manduca sexta larvae as they progressed from the first through fifth instar stages was studied. In one study, the caterpillars were placed in a 27° C. incubator (photoperiod 16 hours light, 8 hours dark; relative humidity 60%) and fed a hydrated standard defined hornworm diet without (control) or with L-methionine supplementation (10% wt./wt. of dry components).

Manduca sexta larvae [7] = conditions: Silwet-L77
Protocol: In one study, leaves of eggplant (Solanum melongena) were sprayed with a deionized water/Silwet-L77 solution containing varying concentrations of methionine, then allowed to dry. The Silwet-L77 was prepared according to the manufacture's instructions. Manduca sexta larvae (N=400; 80 per methionine dose) were then exposed to the eggplant leaves during 10 days, and surviving larvae were counted daily.

Structure (SMILES): CSCC[C@H](N)C(=O)O [L-methionine]
- CAATCH1-associated voltage-dependent amino acid-elicited steady state inward cation currents (CAATCH1): blocked
- larvae dead [1]: 100%
- plant viability [2]: plant viability was not affected
- efficacy of lowest concentration attempted ([3]; 0.06% (w/w on leaves)): efficacious
- larvae mortality versus concentration ([3]; various concentrations): increased in a dose-dependent manner
- fruit yield mean numbers or mean weights [4]: not significantly different from control
- larvae killed (Aedes aegypti larvae; 0.7% methionine in water, day 3): 100%
- LD50 (Aedes aegypti larvae; day 2): ~0.5 % methionine
- LD50 (Aedes aegypti larvae; day 3): ~0.3 % methionine
- methionine concentration at which complete mortality was attained [5]: ≤ 0.15%
- larval development (Manduca sexta larvae [6]): prevented all the caterpillars from advancing in development
- larvae killed (Manduca sexta larvae [6]; within 3 days): 100%
- time to reach complete mortality (Manduca sexta larvae [7]; leaves treated with 0.31% methionine): 4 days
- time to reach complete mortality (Manduca sexta larvae [7]; leaves treated with 0.45% (w/w) methionine): 2 days

Structure (SMILES): O=C(O)[C@@H]1CCCN1 [L-proline, reference compound]
- effect on larvae survival compared to 0% methionine control (Aedes aegypti larvae; all test days, P≧0.05): no effect
